Experiments:
Format in all cases: cell-based
Design in all cases: expressed in transfected cells; host or cells: HEK293 cells, transient PEI transfection
AT1R [1] = biological target: T1, AT1R (Homo sapiens, UniProt P30556); experiment: Gαq activation BRET (GABY sensor) in HEK293 cells expressing AT1R; conditions: for Emax Gαq (% AngII): HEK293/AT1R, GABY BRET sensor, response of the ligand at 10 μM, normalised to AngII; for EC50: HEK293 cells transiently expressing human AT1R, Gαq-RlucII/Gβ1/Gγ1-GFP10 (GABY) BRET sensor, BRET read 10 min after ligand, mean ± SEM of at least three to five independent experiments
T1 sequence (P30556 1-359): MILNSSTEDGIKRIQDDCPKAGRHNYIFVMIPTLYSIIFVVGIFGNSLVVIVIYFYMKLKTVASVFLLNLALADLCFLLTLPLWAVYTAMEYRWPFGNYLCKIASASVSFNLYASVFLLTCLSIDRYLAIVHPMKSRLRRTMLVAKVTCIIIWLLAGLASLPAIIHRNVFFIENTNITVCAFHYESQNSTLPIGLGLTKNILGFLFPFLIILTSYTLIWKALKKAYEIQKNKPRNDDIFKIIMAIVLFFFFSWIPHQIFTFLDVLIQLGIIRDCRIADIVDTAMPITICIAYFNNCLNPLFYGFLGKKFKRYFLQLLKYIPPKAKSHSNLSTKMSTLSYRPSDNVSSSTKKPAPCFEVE
Description: (§1) We utilized a clonal cell line HEK293, referred to hereafter as HEK293 cells, which has been previously described.[7],[8] As a gracious gift from A. Inoue (Tohoku University, Sendai, Miyagi, Japan), CRISPR Gαq/11 and Gα12/13 knockout cell lines (ΔGq/11 and ΔG12/13, respectively), were derived as previously explained.[48] In brief, a CRISPR-Cas9 system was used to target either GNAQ and GNA11 or GNA12 and GNA13 genes in HEK293T cells simultaneously to generate the Gαq/11 and Gα12/13 knockout cell lines. For the production of adenovirus, we utilized HEK293A cells. All cells were grown in DMEM supplemented with 10% FBS and Penicillin-Streptomycin-L-Glutamine (10000 IU penicillin, 10000 µg/mL Streptomycin, 200 mM L-Glutamine) at 37°C in T175 flasks under a 5% CO2 humidified chamber. Periodic testing was carried out for mycoplasma contamination (ABM™, Mycoplasma PCR Detection kit). For all biosensors used, cells underwent transfection with the PEI reagent, employing a PEI:DNA ratio of 3:1. For the Gαq biosensor, HEK293 cells were transfected with the plasmids coding for Gαq-RLucII (120 ng), Gβ1 (3000 ng), Gγ1-GFP10 (3000 ng), human AT1 (3000 ng) and Salmon sperm DNA (SSD) (880 ng). For the β-arrestin2 recruitment assay, HEK293 cells were transfected with the plasmids coding for 120 ng β-arrestin-2-RLucII, 3000 ng AT1, 3000 ng rGFP-CAAX, and 3880 ng SSD. For the measurement of PKC, HEK293 cells were transfected with 3000 ng AT1, 600 ng PKC-c1b, and 6400 ng SSD. […] 100 µL of the cell/DNA mixture was added to white 96-well plates and incubated at 37°C at 5% CO2 for 48 h. For the Rho assay, ΔG12/13 cells were seeded at a density of 9,000 cells per well in poly-ornithine-coated white 96-well plates and transfected the following day. In brief, 1 μg of total DNA in 100 μL of PBS was mixed with 100 μL of PBS containing 3 μL of 1 mg/mL PEI. For Rho signaling, 150 ng of AT1R DNA with 25 ng of PKN-RBD-RlucII [8], and 100 ng of rGFP-CAAX were used. Empty pcDNA was used to reach 1 µg of the total DNA amount in 100 μL of PBS. The DNA was then mixed with 100 μL of PBS containing 3 μL of 1 mg/mL PEI. After a 20-min incubation, the DNA/PEI complexes were dispensed into cells in 96-well plates (15 µL/well), and the experiment was carried out 48 h post-transfection.
(§2) On the day of the experiment, each well was washed with 80 µL of Tyrode’s buffer (140 mM NaCl, 2.7 mM KCl, 1 mM CaCl2, 12 mM NaHCO3, 5.6 mM D-glucose, 0.5 mM MgCl2, 0.37 mM NaH2PO4, 25 mM Hepes (pH 7.4)). This was followed by incubation for 1 h in Tyrode’s buffer at room temperature. For the Gαq, β-arrestin-2, and PKC biosensors used in HEK293 cells, coelenterazine 400A (at a final concentration of 5 μM) was added 10 min before stimulation. Cells were then stimulated with increasing doses of the indicated ligand, and BRET signals were measured using a Tristar2 (Berthold) microplate reader 10 min later. For the PKC and Rho biosensors in VSMCs, and the Rho biosensor in ΔG12/13 cells, cells were similarly stimulated with ligands for 1 min, 1 min 30 s, and 3 min, respectively, before BRET measurement. […] BRET signals were then measured using a Synergy2 (BioTek) microplate reader. The applied filter set was 410/80 nm and 515/30 nm, designed to detect the light emissions of RlucII (Renilla luciferase) (donor) and rGFP (acceptor), respectively.

AT1R [2] = biological target: T1, AT1R; experiment: β-arrestin2 recruitment BRET (β-arrestin2-RLucII/rGFP-CAAX) in HEK293 cells expressing AT1R; conditions: for Emax βarr2 (% AngII): HEK293/AT1R, β-arrestin2 BRET, response of the ligand at 10 μM, normalised to AngII; for EC50: HEK293 cells transiently expressing AT1R, β-arrestin2-RLucII/rGFP-CAAX BRET, read 10 min after ligand, mean ± SEM of at least three to five independent experiments, SEM, read-out: EC50 βarr2
Description: as §1, §2

AT1R [3] = biological target: T1, AT1R; experiment: PKC BRET sensor in HEK293 cells expressing AT1R; conditions: for Emax PKC (% AngII): PKC BRET sensor, response at 10 μM, normalised to AngII; for EC50: PKC-c1b BRET sensor, read 10 min after ligand, mean ± SEM of at least three to five independent experiments, SEM
Description: as §1
On the day of the experiment, each well was washed with 80 µL of Tyrode’s buffer (140 mM NaCl, 2.7 mM KCl, 1 mM CaCl2, 12 mM NaHCO3, 5.6 mM D-glucose, 0.5 mM MgCl2, 0.37 mM NaH2PO4, 25 mM Hepes (pH 7.4)). This was followed by incubation for 1 h in Tyrode’s buffer at room temperature. […] Cells were then stimulated with increasing doses of the indicated ligand, and BRET signals were measured using a Tristar2 (Berthold) microplate reader 10 min later. […] BRET signals were then measured using a Synergy2 (BioTek) microplate reader. […]

Row | Emax Gαq (% AngII) (AT1R [1]) | EC50 (AT1R [1]; SEM) | Emax βarr2 (% AngII) (AT1R [2]) | EC50 (AT1R [2]) | Emax PKC (% AngII) (AT1R [3]) | EC50 (AT1R [3]) | EC50 (AT1R [1]) | Structure (SMILES)
1 | 113 % AngII | 1.1 ± 0.4 nM | 105 % AngII | 0.36 ± 0.1 nM | 105 % AngII | 0.66 ± 0.13 nM |  | CC[C@H](C)[C@H](NC(=O)[C@H](Cc1ccc(O)cc1)NC(=O)[C@@H](NC(=O)[C@H](CCCNC(=N)N)NC(=O)[C@@H](N)CC(=O)O)C(C)C)C(=O)N[C@@H](Cc1c[nH]cn1)C(=O)N1CCC[C@H]1C(=O)N[C@@H](Cc1ccc(OC)cc1)C(=O)O [compound 11]
2 | 11 % AngII |  | 89 % AngII | 2.5 ± 0.4 nM | 51 % AngII | 4.8 ± 3.4 nM | > 10000 nM | CC[C@H](C)[C@H](NC(=O)[C@H](Cc1ccc(O)cc1)NC(=O)[C@@H](NC(=O)[C@H](CCCNC(=N)N)NC(=O)[C@@H](N)CC(=O)O)C(C)C)C(=O)N[C@@H](Cc1c[nH]cn1)C(=O)N1CCC[C@H]1C(=O)N[C@@H](Cc1ccc(OCc2ccccc2)cc1)C(=O)O [compound 12]
